According to patent publication US6875757B2, “LPA receptor agonists and antagonists and methods of use” (University of Tennessee Research Foundation, priority 2000, dated 2005):

How the values were obtained:
[1] = system: NIH3T3 cells; assay: LPA-elicited proliferation of NIH3T3 cells (cell counting); format: cell-based
Description: Proliferation of NIH3T3 cells was assessed by direct cell counting as previously described (Tigyi et al., 1999). NIH3T3 cells were plated in 24-well plates at a density of 10,000 cells/well, in DMEM containing 10% FBS. The following day, the cells were rinsed and serum starved in DMEM for 6 hr. Lipids were then added for 24 hr. Cell numbers were determined by counting in a Coulter counter (Coulter Electronics, Hialeah, Fla.).

[2] = biological target: PSP24 PLGFR (Xenopus laevis, UniProt P79945); assay: Xenopus oocyte assay: LPA-induced oscillatory chloride currents (two-electrode voltage clamp); format: cell-based
Sequence of PSP24 PLGFR (P79945 whole entry): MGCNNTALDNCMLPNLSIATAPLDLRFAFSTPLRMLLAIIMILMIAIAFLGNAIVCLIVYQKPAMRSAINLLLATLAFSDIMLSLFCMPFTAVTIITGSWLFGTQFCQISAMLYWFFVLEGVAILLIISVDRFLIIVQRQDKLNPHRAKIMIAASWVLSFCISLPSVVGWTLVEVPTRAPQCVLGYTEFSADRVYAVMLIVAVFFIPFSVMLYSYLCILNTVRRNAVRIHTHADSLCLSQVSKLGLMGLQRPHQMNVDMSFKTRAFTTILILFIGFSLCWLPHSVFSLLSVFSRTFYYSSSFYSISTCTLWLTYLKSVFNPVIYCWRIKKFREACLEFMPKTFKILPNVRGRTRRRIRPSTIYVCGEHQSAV
Description: Xenopus oocytes which endogenously express PSP24 PLGFR were used to screen the newly designed and synthesized compounds for their LPA inhibitory activity.
(§1) Oocytes were obtained from xylazine-anesthetized adult Xenopus laevis frogs (Carolina Scientific, Burlington, N.C.) under aseptic conditions and prepared for experiment. […] Oocytes were kept in Barth's solution in an incubator between 17-20° C. and were used for 2-7 days after isolation.
(§2) Electrophysiological recordings were carried out using a standard two-electrode voltage-clamp amplifier holding the membrane potential at −60 mV (GeneClamp 500, Axon Instruments, Calif.). […] Membrane currents were recorded with a NIC-310 digital oscilloscope (Nicolet, Madison, Wis.). Applications were made at intervals of 15 mins (minimum) to allow for the appropriate washout and recovery from desensitization.
as §1
as §2, with “CA).” for “Calif.).”

[3] = system: HEY ovarian cancer cells; assay: Ca2+ responses in HEY ovarian cancer cells; format: cell-based; details: 100 nM LPA 18:1 mixed with 1 μM lipid
From the text: Likewise, PA 8:0 inhibited the Ca^2+ response to 6% of control, whereas PA 18:1 had no effect. HEY express mRNA transcripts for Edg-1, -2, -5, -7 receptors (FIG. 34C).

[4] = biological target: T1, human Edg-2 (Homo sapiens, UniProt Q92633); assay: Ca2+ responses (Fura-2) in RH7777 cells expressing Edg-2; format: cell-based
T1 construct: expressed in transfected cells
T1 sequence (Q92633 whole entry): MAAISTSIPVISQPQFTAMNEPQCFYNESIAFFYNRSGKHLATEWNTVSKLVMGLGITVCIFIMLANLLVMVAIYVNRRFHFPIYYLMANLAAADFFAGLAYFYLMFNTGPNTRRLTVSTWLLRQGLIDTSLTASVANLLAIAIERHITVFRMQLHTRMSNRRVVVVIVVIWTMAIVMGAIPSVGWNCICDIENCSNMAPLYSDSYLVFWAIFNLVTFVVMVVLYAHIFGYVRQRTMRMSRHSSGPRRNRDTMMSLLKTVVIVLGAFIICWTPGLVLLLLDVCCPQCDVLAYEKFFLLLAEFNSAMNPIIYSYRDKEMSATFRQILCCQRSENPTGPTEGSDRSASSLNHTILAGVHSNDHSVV
Description: (§3) RH7777 cells were transfected with the cDNA constructs encoding human Edg-2, Edg-4, or Edg-7 and then were subcloned into the pCDNA3 expression vector using the Cytofectene transfection reagent according to the manufacturers' protocol. Transfected cells were selected in DMEM containing 10% FBS and 1 mg/ml geneticin. Resistant cells were collected and subcloned by limiting dilution. The resulting clones were then screened using functional assays and RT-PCR analysis. Data are representative of three individual clones.

[5] = system: G-protein coupled receptors for serotonin; details: oocytes injected with rat brain polyA+ mRNA
From the text: (§4) To show the specificity of DGPP 8:0 for the LPA receptors expressed in the oocyte, the expression of neurotransmitter receptors was induced by the injection of polyA+ mRNA from rat brain.

[6] = system: G-protein coupled receptors for acetycholine; details: oocytes injected with rat brain polyA+ mRNA
From the text: as §4

[7] = system: NIH3T3 cells
Description: Data points from the intracellular Ca^2+ measurements represent the total peak area of the Ca^2+ transients elicited, as determined by the FLWinLab software (Perkin-Elmer, Wellesley, Mass.). Data points represent the average of at least 3 measurements±standard deviation. The significance of the data points was determined using the students t-test and values were considered significant at p<0.05.
The effect of DGPP 8:0 on LPA-elicited responses was also examined in mammalian systems that endogenously express LPA receptors. NIH3T3 cells were screened by RT-PCR for the presence of mRNA for the Edg and PSP24 receptors.

[8] = biological target: T2, human Edg-4 (Homo sapiens, UniProt Q9HBW0); assay: Ca2+ responses (Fura-2) in RH7777 cells expressing Edg-4 (stable or transient); format: cell-based; details: 100 nM LPA 18:1 and 1 μM DGPP 8:0
T2 construct: expressed in transfected cells
T2 sequence (Q9HBW0 whole entry): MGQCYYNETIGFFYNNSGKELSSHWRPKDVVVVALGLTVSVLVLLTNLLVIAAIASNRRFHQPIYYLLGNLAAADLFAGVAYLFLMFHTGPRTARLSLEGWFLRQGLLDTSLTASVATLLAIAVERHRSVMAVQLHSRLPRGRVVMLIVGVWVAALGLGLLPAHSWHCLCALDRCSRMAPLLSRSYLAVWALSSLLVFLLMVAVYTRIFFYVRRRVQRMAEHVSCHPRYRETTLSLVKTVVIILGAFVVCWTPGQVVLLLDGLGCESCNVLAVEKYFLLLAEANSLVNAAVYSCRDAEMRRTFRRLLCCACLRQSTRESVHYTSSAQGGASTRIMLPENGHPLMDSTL
From the text: RH7777 cells, stably expressing human Edg-4, were kindly provided by Dr. Kevin Lynch (University of Virginia, Charlottesville, Va.). Flag-tagged cDNA's encoding human Edg-4 and -7 inserted into the pCDNA3 expression plasmid (Invitrogen, Carlsbad, Calif.), were a generous gift from Dr. Junken Aoki (University of Tokyo, Tokyo, Japan). RH7777 and NIH3T3 cells were obtained from the American Type Culture Collection (Manassas, Va.). HEY cells were provided by Dr. Lisa Jennings (University of Tennessee, Memphis). All cell lines were maintained in Dulbecco's Modified Eagle's Medium (DMEM) containing 10% FBS and 2 mM glutamine. Oocytes were obtained from adult Xenopus laevis frogs as previously described (Tigyi et al., 1999).
as §3
RH7777 cells were plated on polylysine-coated glass coverslips (Bellco, Vineland, N.J.) one day prior to transfection. The following day, cells were transfected overnight (16-18 hr) with 1 μg of plasmid DNA mixed with 6 μl of Cytofectene. The cells were then rinsed twice with DMEM and cultured in DMEM containing 10% FBS. The next day, the cells were rinsed with DMEM and serum was withdrawn for a minimum of 2 hr prior to monitoring intracellular Ca^2+.

[9] = biological target: T3, human Edg-7 (Homo sapiens, UniProt Q9UBY5); assay: Ca2+ responses (Fura-2) in RH7777 cells expressing Edg-7; format: cell-based
T3 construct: Flag; expressed in transfected cells
T3 sequence (Q9UBY5 1-353): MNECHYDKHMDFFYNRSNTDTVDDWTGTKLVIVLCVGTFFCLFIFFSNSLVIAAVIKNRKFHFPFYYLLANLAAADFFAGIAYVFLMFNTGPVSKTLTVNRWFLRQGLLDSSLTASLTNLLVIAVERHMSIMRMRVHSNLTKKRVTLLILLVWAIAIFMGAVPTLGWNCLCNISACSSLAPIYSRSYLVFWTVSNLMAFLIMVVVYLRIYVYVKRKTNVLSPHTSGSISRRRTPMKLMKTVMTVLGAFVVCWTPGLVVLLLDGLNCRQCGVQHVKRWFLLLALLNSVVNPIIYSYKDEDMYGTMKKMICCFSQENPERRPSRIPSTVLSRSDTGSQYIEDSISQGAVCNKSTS
Description: as §3

[10] = 10-fold excess: 100 nM LPA 18:1 and 1 μM DGPP 8:0
[11] = LPA constant at its EC50 (250 nM LPA 18:1), read-out: IC50, inhibition of LPA-elicited Ca2+ responses

Structure (SMILES): CCCCCCCC(=O)OC[C@H](COP(=O)(O)OP(=O)(O)O)OC(=O)CCCCCCC [DGPP 8:0, diacylglycerol pyrophosphate]
- effect on LPA-induced proliferation ([1]; 5 μM LPA 18:1 mixed with 10 μM lipid, 24 hr): significantly inhibited
- effect on solvent-treated control cells ([1]; 10 μM lipid, solvent (BSA) in place of LPA 18:1, 24 hr): had no effect
- LPA response with compound applied extracellularly ([2]; 5 nM LPA 18:1 and 1 μM DGPP 8:0): completely inhibited
- IC50 ([2]; 5 nM LPA 18:1 mixed with increasing DGPP 8:0, read-out: IC50, inhibition of Ca2+-mediated inward Cl- currents elicited by LPA): 96 ± 21 nM
- mechanism of action (shift of LPA 18:1 dose response curve) ([2]; 200 nM DGPP 8:0): competitive
- reversibility of inhibition of LPA-induced chloride currents ([2]; after washing the oocyte): reversible
- LPA response after intracellular injection of compound ([2]; intracellular injection, estimated >300 nM, extracellular 5 nM LPA 18:1): elicited a response equal in size to that of the control
- LPA-elicited Ca2+ response, % of control [3]: 12 % of control
- Ca2+ response, % of control ([4]; 250 nM LPA 18:1 mixed with 10 μM lipid): 50 % of control
- inhibition of LPA-elicited Ca2+ responses [4, 10]: approximately 50%
- IC50 [4, 11]: 11000 ± 680 nM
- mechanism of inhibition (shift of LPA dose response curve) ([4]; constant DGPP 8:0, 3 μM): competitive
- inhibition of serotonin-elicited responses [5]: did not inhibit
- inhibition of carbachol-elicited responses [6]: did not inhibit
- effect on LPA-elicited Ca2+ responses ([7]; 100 nM LPA in the presence of 10 μM DGPP 8:0): significantly inhibited
- effect on S1P-elicited Ca2+ response ([7]; 100 nM S1P in the presence of 10 μM DGPP 8:0): not effected
- inhibition of the Ca2+ responses ([7]; 100-fold excess over LPA): 40%
- effect on LPA-elicited Ca2+ responses ([8]; stable Edg-4): unaffected
- effect on LPA-elicited Ca2+ responses ([8]; transient Edg-4): not effected
- inhibition of the Ca2+ responses ([9]; 250 nM LPA 18:1 mixed with 500 nM lipid): 50%
- effect on LPA-elicited Ca2+ responses [9, 10]: completely abolished
- IC50 [9, 11]: 285 ± 28 nM
- mechanism of inhibition (shift of LPA dose response curve) ([9]; constant DGPP 8:0, 250 nM): competitive
